{"source": "patent US5368712A", "about": "“Biologically mimetic synthetic ion channel transducers” (Synporin Technologies, Inc., priority 1990, dated 1994)", "key": {"[1]": {"assay": "Single channel recordings of synthetic channel proteins in lipid bilayers", "conditions": "for formation of ionic channels in lipid bilayers: single channel recordings in lipid bilayers", "protocol": "Using established recording, filtering, digitizing and data processing techniques, single channel recording were made of single channel recordings for tethered tetrameric M2δ proteins and free M2δ proteins (FIGS. 7 and 8 respectively). Conductance (V) and lifetime (T) values were determined from a multiplicity of events, and single channel open and closed lifetimes were discriminated using a published pattern recognition algorithm.\nThese recordings were made in symmetric 0.5M KCl (pH 7.4) and recorded at 100 mV. […] These were recorded at 0.5M NaCl (pH 7.2) and 100 mV.\nPlanar lipid bilayers into which the synthetic ion protein channels can be incorporated are prepared using commonly available and well understood lipids and bilayer formation techniques. For example, planar bilayers can be formed by hydrophobic apposition of two lipid monolayers initially formed at an air-water interface. The electrical properties of such protein-free bilayers can be examined using known techniques. Peptides can be incorporated into the bilayers from mixed lipid-peptide monolayers."}, "[2]": {"biological_target": "T1, tetrameric M2δ synthetic porin (Tetronarce californica, UniProt P02718)", "T1 construct": "multi-functional carrier template (peptide backbone of at least seven amino acids with four basic attachment residues); made in house; host or cells: chemical peptide synthesis (no expression host)", "assay": "Block of tetrameric M2δ synthetic porin by a local anaesthetic derivative, single channel recordings", "type": "biochemical, Torpedo californica", "conditions": "25 μM QX-222", "protocol": "Furthermore, the pharmacological specificity of the pure structure generated by the tetrameric M2δ synthetic porin was examined by using a quaternary derivative (QX-222) of the local anaesthetic lidocaine. QX-222 is known to transiently block the flow of current through the AChR channel, thereby reducing the channel open lifetime. FIGS. 9A and […] show comparative single channel recordings of this synthetic porin before (FIG. 9A) and after (FIG. 9B) addition of 25 μM QX-222. The result is that the characteristic brief and long open lifetimes exist prior to application of the anaesthetic, as previously shown in FIG. 7."}}, "note": "Several values for one entry are separate records, joined by “and”; a condition that tells them apart may be missing. Identical values can stand only once. Entries after “also recorded” stand apart in the source; their conditions may differ."}
{"compound": "9 amino acid backbone used as template: nine-residue carrier template K K K P G K E K G without attached oligopeptides (KKKPGKEKG)", "values": [{"measurement": "formation of ionic channels in lipid bilayers", "setting": "[1]", "result": "showed similar activity"}]}
{"compound": "Cc1cccc(C)c1NC(=O)C[N+](C)(C)C", "note": "[QX-222]", "values": [{"measurement": "effect on channel open time", "setting": "[2]", "result": "drastically shortened"}, {"measurement": "effect on single channel conductance V", "setting": "[2]", "result": "virutally unaffected"}]}
{"compound": "EKMSTAISVLLAQAVFLLLTSQR [free (monomeric) M2δ, untethered 23-mer synthetic peptide mimicking the acetylcholine receptor M2δ subunit]", "values": [{"measurement": "single channel conductance V of distinct events", "setting": "[1]; 0.5M NaCl (pH 7.2), 100 mV", "result": "20 pS and 40 pS"}, {"measurement": "formation of ionic channels in lipid bilayers", "setting": "[1]", "result": "form discrete ion channels in lipid bilayers; also recorded: forms channels of heterogeneous amplitudes and open lifetimes"}]}
{"compound": "XPDWNWLDFTVITFAYVTEFVDL [22-residue synthetic peptide that mimics the electrical properties of a voltage dependent sodium channel]", "values": [{"measurement": "selectivity cations versus anions", "setting": "[1]", "result": "discriminates cations over anions"}, {"measurement": "selectivity sodium ion versus potassium ion", "setting": "[1]", "result": "nonselective between sodium ion and potassium ion"}, {"measurement": "single channel open and close lifetimes", "setting": "[1]", "result": "in the millisecond time range"}, {"measurement": "voltage dependence", "setting": "[1]", "result": "no specific voltage dependence"}, {"measurement": "single channel conductance of the most frequent event", "setting": "[1]; 0.5M sodium chloride", "result": 20, "unit": "pS"}]}
